The source of these data is patent US7531554B2, “4-oxoquinoline compound and use thereof as HIV integrase inhibitor” (Japan Tobacco Inc., priority 2004, dated 2009).

Where a name gives a salt, the structure may show the parent alone.

One data set has as its target T1, HIV integrase (Human immunodeficiency virus type 1 group M subtype B, UniProt P12497, F1332H).
T1 construct: HIV integrase full length gene (J. Virol., 67, 425-437 (1993)) in which phenylalanine at codon 185 was substituted by histidine; made in house; host or cells: Escherichia coli BL21(DE3)
In words: Determination of enzyme (HIV integrase) inhibitory activity. The format is biochemical. Conditions: recombinant integrase protein (F185H), donor DNA/target DNA, absorbance at 450 nm. The method, boiled down: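 Full-length HIV integrase bearing F185H mutation, E. coli-expressed and purified, preincubated with compound on plate-bound biotinylated donor DNA for 60 min at 37 °C; digoxigenin-labelled target DNA then added for 10 min. Strand transfer detected by peroxidase anti-digoxigenin ELISA at 450 nm; IC50 from inhibition versus no-compound and no-enzyme controls.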

On to `O=C(O)c1cn(CCO)c2ccc(Cc3cccc(Cl)c3Cl)cc2c1=O`, for which the melting point (commonly the temperature, or range, at which the solid turns liquid) was 247 to 249 °C. In the case of `CC(C)[C@@H](CO)n1cc(C(=O)O)c(=O)c2cc(Cc3cccc(Cl)c3F)c(O[C@@H]3CCNC3)cc21` [Example 4-37, 6-(3-chloro-2-fluorobenzyl)-1-((1S)-1-(hydroxymethyl)-2-methylpropyl)-4-oxo-7-((3R)-pyrrolidin-3-yloxy)-1,4-dihydroquinoline-3-carboxylic acid hydrochloride], the half-maximal inhibitory concentration (IC50) (usually the midpoint of a concentration-inhibition curve) at HIV integrase was 4.4 nM. On the same count and under the same terms, then `CC(C)[C@@H](CO)n1cc(C(=O)O)c(=O)c2cc(Cc3cccc(Cl)c3F)c(OCCO)cc21` [Example 7-3, 6-(3-chloro-2-fluorobenzyl)-7-(2-hydroxyethoxy)-1-((1S)-1-(hydroxymethyl)-2-methylpropyl)-4-oxo-1,4-dihydroquinoline-3-carboxylic acid], with 3.5 nM.

Take `COc1cc2c(cc1C(O)c1cccc(Cl)c1F)c(=O)c(C(=O)O)cn2[C@H](CO)C(C)C` (single isomer, unassigned) [Example 7-7]: on HIV integrase, the half-maximal inhibitory concentration (IC50) was 17 nM. On the same count and under the same terms, with `CC(C)[C@@H](CO)n1cc(C(=O)O)c(=O)c2cc(Cc3cccc(Cl)c3F)cc(O)c21` [Example 3-5, 6-(3-chloro-2-fluorobenzyl)-8-hydroxy-1-((1S)-1-(hydroxymethyl)-2-methylpropyl)-4-oxo-1,4-dihydroquinoline-3-carboxylic acid] the figure was 4 nM; with `CC(C)[C@@H](CO)n1cc(C(=O)O)c(=O)c2cc(Cc3cccc(Cl)c3F)c(N3CCN[C@@H](C)C3)cc21` [Example 4-30, 6-(3-chloro-2-fluorobenzyl)-1-((1S)-1-(hydroxymethyl)-2-methylpropyl)-7-((3S)-3-methylpiperazin-1-yl)-4-oxo-1,4-dihydroquinoline-3-carboxylic acid], 6.1 nM. Turning to `CC1CN(c2cc3c(cc2Cc2cccc(Cl)c2F)c(=O)c(C(=O)O)cn3[C@H](CO)C(C)C)CC(C)O1` (stereo partly drawn) [Example 4-31, 6-(3-chloro-2-fluorobenzyl)-7-(2,6-dimethylmorpholin-4-yl)-1-((1S)-1-(hydroxymethyl)-2-methylpropyl)-4-oxo-1,4-dihydroquinoline-3-carboxylic acid], the concentration for half-maximal inhibition (IC50) at HIV integrase is 13 nM.

With `COCCCOc1cc(Cc2cccc(Cl)c2F)cc2c(=O)c(C(=O)O)cn([C@H](CO)C(C)C)c12` [Example 3-7, 6-(3-chloro-2-fluorobenzyl)-1-((1S)-1-(hydroxymethyl)-2-methylpropyl)-8-(3-methoxypropoxy)-4-oxo-1,4-dihydroquinoline-3-carboxylic acid], the IC50 on HIV integrase came out at 4.7 nM.

Regarding `CC(C)[C@@H](CO)n1cc(C(=O)O)c(=O)c2cc(Cc3cccc(Cl)c3F)cc(OCCO)c21` [Example 3-1, 6-(3-chloro-2-fluorobenzyl)-8-(2-hydroxyethoxy)-1-((1S)-1-(hydroxymethyl)-2-methylpropyl)-4-oxo-1,4-dihydroquinoline-3-carboxylic acid], the IC50 on HIV integrase came out at 5.1 nM. In the case of `CC(C)[C@@H](CO)n1cc(C(=O)O)c(=O)c2cc(Cc3cccc(Cl)c3F)c(OCCCCN)cc21` [Example 4-34, 7-(4-aminobutoxy)-6-(3-chloro-2-fluorobenzyl)-1-((1S)-1-(hydroxymethyl)-2-methylpropyl)-4-oxo-1,4-dihydroquinoline-3-carboxylic acid hydrochloride], on HIV integrase, the half-inhibitory concentration (IC50) was found to be 3.9 nM.

On to `CC(C)[C@@H](CO)n1cc(C(=O)O)c(=O)c2cc(Cc3cccc(Cl)c3F)cc(OCCCO)c21` [Example 3-2, 6-(3-chloro-2-fluorobenzyl)-1-((1S)-1-(hydroxymethyl)-2-methylpropyl)-8-(3-hydroxypropoxy)-4-oxo-1,4-dihydroquinoline-3-carboxylic acid], for which, on HIV integrase, the half-maximal inhibitory concentration (IC50) came out at 4.7 nM. For `CC(C)[C@@H](CO)n1cc(C(=O)O)c(=O)c2cc(Cc3cccc(Cl)c3F)c(OCCN(C)C)cc21` [Example 4-2, 6-(3-chloro-2-fluorobenzyl)-7-(2-(dimethylamino)ethoxy)-1-((1S)-1-(hydroxymethyl)-2-methylpropyl)-4-oxo-1,4-dihydroquinoline-3-carboxylic acid], the half-maximal inhibitory concentration (IC50) on HIV integrase is 6 nM. Same read-out and setting: with `COC[C@@H](CO)n1cc(C(=O)O)c(=O)c2cc(Cc3cccc(Cl)c3F)ccc21` [Example 2-14, 6-(3-chloro-2-fluorobenzyl)-1-((1R)-1-(hydroxymethyl)-2-methoxyethyl)-4-oxo-1,4-dihydroquinoline-3-carboxylic acid] the figure was 13 nM. Consider `CC(C)(C)[C@@H](CO)n1cc(C(=O)O)c(=O)c2cc(Cc3cccc(Cl)c3F)c(N3CCOCC3)cc21` [Example 7-6, 6-(3-chloro-2-fluorobenzyl)-1-((1S)-2,2-dimethyl-1-(hydroxymethyl)propyl)-7-(morpholin-4-yl)-4-oxo-1,4-dihydroquinoline-3-carboxylic acid], for which the IC50 on HIV integrase was 4.3 nM. The same measure, in the same setting: then `CC(C)[C@@H](CO)n1cc(C(=O)O)c(=O)c2cc(Cc3cccc(Cl)c3F)c(N3CCN[C@H](C)C3)cc21` [Example 4-29, 6-(3-chloro-2-fluorobenzyl)-1-((1S)-1-(hydroxymethyl)-2-methylpropyl)-7-((3R)-3-methylpiperazin-1-yl)-4-oxo-1,4-dihydroquinoline-3-carboxylic acid], with 5.1 nM; and `CC(C)[C@@H](CO)n1cc(C(=O)O)c(=O)c2cc(Cc3cccc(Cl)c3F)c(OCc3cccnc3)cc21` [Example 4-61, 6-(3-chloro-2-fluorobenzyl)-1-((1S)-1-(hydroxymethyl)-2-methylpropyl)-4-oxo-7-(pyridin-3-ylmethoxy)-1,4-dihydroquinoline-3-carboxylic acid], with 4.9 nM.
